# In US20170106109A1 (priority 2010, published 2017):
# Tests used:
# Escherichia coli = type: cell-based
# Ralstonia solanacearum [1] = type: cell-based
# Ralstonia solanacearum [2] = type: cell-based; remark: listed apart in the source
# [3] = system: λ phage DNA HindIII Marker
structure (smiles),measurement,setting,value
"OO [Sample 3-3, hydrogen peroxide]",survival of Escherichia coli,Escherichia coli,a large amount of Escherichia coli survived
"OO [Sample 4-3, hydrogen peroxide]",survival of Ralstonia solanacearum,Ralstonia solanacearum [1],a large amount of Ralstonia solanacearum survived
"OO [Sample 6-3, hydrogen peroxide]",change of bacterial density of Ralstonia solanacearum with time,Ralstonia solanacearum [2],the bacterial density changed little
"OO [Sample 7-3, hydrogen peroxide]",DNA ladder on agarose electrophoresis,[3],the DNA ladder did not change
